Biological target: T1, AHR (Rattus norvegicus, UniProt P41738)
T1 construct: had no activity on rat cells; endogenous in cells; host or cells: unnamed rat cells
T1 sequence (P41738 10-853): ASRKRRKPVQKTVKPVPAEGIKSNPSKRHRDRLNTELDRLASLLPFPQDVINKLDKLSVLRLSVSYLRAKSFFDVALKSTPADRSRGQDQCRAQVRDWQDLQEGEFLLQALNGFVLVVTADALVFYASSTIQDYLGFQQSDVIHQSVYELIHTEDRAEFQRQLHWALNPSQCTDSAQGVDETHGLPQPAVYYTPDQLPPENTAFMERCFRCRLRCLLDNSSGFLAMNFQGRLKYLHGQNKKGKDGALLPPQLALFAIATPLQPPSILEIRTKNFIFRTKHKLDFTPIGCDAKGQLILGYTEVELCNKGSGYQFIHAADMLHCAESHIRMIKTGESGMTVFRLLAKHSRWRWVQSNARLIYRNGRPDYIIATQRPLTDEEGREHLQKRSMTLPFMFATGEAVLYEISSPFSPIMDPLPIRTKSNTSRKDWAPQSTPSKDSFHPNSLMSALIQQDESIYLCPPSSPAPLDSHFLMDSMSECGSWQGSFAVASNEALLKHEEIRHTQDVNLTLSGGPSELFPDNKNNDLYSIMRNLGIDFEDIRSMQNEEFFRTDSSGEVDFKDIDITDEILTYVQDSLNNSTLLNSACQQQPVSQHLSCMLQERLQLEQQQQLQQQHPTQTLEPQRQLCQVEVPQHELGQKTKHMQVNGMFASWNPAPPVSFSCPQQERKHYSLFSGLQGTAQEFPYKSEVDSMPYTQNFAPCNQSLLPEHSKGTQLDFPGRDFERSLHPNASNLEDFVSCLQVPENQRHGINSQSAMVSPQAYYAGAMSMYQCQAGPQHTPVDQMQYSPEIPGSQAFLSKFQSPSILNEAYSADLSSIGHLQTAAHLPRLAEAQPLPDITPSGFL
Experiment: Dioxin induced AHR dependent transcription, rat cells
Type: cell-based
Method: Further, the ability of Example 1 to block 2,3,7,8-tetrachlorodibenzo-p-dioxin (TCDD, dioxin)-mediated CYP1B1 mRNA expression by qPCR in mPB-derived CD34^+ cells was determined. Treatment with TCDD (3 nM) caused a 4.5-fold increase in the level of CYP1B1 mRNA compared with the vehicle control (0.01% toluene). […] To determine the effects of Example 1 in AHR transcription the ability of Example 1 to inhibit a dioxin-induced AHR dependent luciferase reporter gene assay was tested.

SMILES: CC(C)n1cnc2c(NCCc3ccc(O)cc3)nc(-c3csc4ccccc34)nc21 [Example 1, 4-(2-(2-(benzo[b]thiophen-3-yl)-9-isopropyl-9H-purin-6-ylamino)ethyl)phenol]
- agonist activity (AHR dependent transcription): only weak agonist activity
- inhibition of dioxin induced transcription: no activity

— US9580426B2, “Compounds that expand hematopoietic stem cells” (Novartis AG, priority 2008, dated 2017)
